Tests used:
[1] = molecular target: human FTD Type A sarkosyl-insoluble brain extracts (Homo sapiens, UniProt Q13148); test: Kd determination by micro-radiobinding assay on FTD Type A extracts; type: binding; details: tritiated compound 1.29 to 300 nM
Protocol: Human brain extracts were prepared as described in Laferriere et al., 2019, Nature Neurosc. A sample of brain tissue (frontal or temporal cortex) was homogenized at 1:4 (w/v) ratio in the homogenization-solubilization (HS) buffer at 4° C. using tissue homogenizer (Precellys) with CKmix homogenization tubes. The following sequence was used for homogenization: 3 cycles of 30 seconds at 5000 rpm (with 15 seconds pause between each cycle). Homogenized samples were aliquoted and stored at −80° C. in 1.5 mL low protein binding tubes.
Brain homogenates were thawed on ice and resuspended in HS buffer to obtain a final concentration of 2% sarkosyl, 1 unit/μL Benzonase and 1 mM MgCl2. The samples were then incubated at 37° C. under constant shaking at 600 rpm on a thermomixer for 45 minutes (min). The supernatants were collected in a new tube (sarkosyl-soluble fraction, S1). The pellet was resuspended in 1000 μL of myelin floatation buffer and centrifuged at 20,000 g for 60 min at 4° C. The supernatant was carefully removed to remove all the floating lipids. This step was repeated if all the lipids could not be removed in a single step. The pellet was subsequently washed with Phosphate-Buffered Saline (PBS) and centrifuged for 30 min at 20,000 g at 4° C. The final pellet was resuspended in 200 μL PBS and stored at −80° C. (sarkosyl-insoluble fraction). The samples were analyzed by immunoblotting in denaturing conditions.
Human FTD sarkosyl-insoluble brain extracts were spotted onto microarray slides. The slides were incubated with [^3H]-Compounds 1, 7, 8, 9, 15, 16 and 17 in a range of concentrations, varying from 1.29 to 300 nM. After incubation, slides were washed and scanned by a real-time autoradiography system (BeaQuant, ai4R). Quantification of the signal was performed by using the Beamage image analysis software (ai4R). Non-specific signal was determined with an excess of non-radiolabeled compound 1, 7, 8, 9, 15, 16 and 17 (1 μM), respectively, and specific binding was calculated by subtracting the non-specific signal from the total signal.
The Kd (Dissociation constant) and R^2 (parameter ranging between 0.0 and 1.0 that quantifies the goodness of fit, and the best curve fit obtained with value of 1.0) were obtained by fitting the specific binding data with non-linear regression analysis, using a one-site specific binding model in GraphPad Prism8.

TDP-43 aggregates = TDP-43 aggregates (Homo sapiens, UniProt Q13148); test: Micro-autoradiography staining in brain sections from patients with FTD; type: binding; design: from tissue; host or cells: frozen post-mortem human brain sections (FTLD-TDP type A and type B; non-demented controls in the classical autoradiography); details: FTLD-TDP type A brain sections; 120 nM
TDP-43 aggregates, sequence (Q13148 whole entry): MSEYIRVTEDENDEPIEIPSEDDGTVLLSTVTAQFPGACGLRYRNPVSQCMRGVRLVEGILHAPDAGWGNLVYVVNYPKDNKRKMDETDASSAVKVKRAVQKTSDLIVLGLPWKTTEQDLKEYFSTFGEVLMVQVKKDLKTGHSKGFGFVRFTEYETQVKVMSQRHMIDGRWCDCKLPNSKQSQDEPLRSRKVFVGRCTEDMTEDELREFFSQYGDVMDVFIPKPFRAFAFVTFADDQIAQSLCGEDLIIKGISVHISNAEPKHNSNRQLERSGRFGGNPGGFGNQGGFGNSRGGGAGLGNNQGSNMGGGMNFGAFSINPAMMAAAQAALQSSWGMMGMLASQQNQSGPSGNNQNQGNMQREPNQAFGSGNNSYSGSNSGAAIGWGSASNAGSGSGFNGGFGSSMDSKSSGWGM
Protocol: All tissues were collected from donors for or from whom a written informed consent for a brain autopsy and the use of the material and clinical information for research purposes had been obtained by the respective brain banks. All samples were anonymized and coded. Frozen brain tissue blocks with confirmed TDP-43 pathology upon autopsy were processed using a cryotome to generate sections of 10 μm in thickness and mounted on glass slides. Sections were kept at −80° C. until use.
Brain sections were immunostained using a commercially available antibody, specific for phosphorylated serine at amino acid 409/410 (anti-pTDP-43 pS409/410, Biolegend, 829901). Sections were fixed for 15 minutes at 4° C. with 4% formaldehyde (Sigma, 252549) and washed three times for height minutes with 1×PBS (Dulbecco's phosphate buffered saline, Sigma D1408) at room temperature. Next, sections were saturated and permeabilized in blocking buffer (PBS, 10% normal goat serum (NGS), 0.25% Triton X-100) for one hour at room temperature and incubated overnight at 4° C. with primary antibody against pTDP-43 (diluted at 1/500 in PBS, 5% NGS, 0.25% Triton X-100). The following day, sections were washed three times for height minutes with 1×PBS before incubation with a secondary, AlexaFluor633-labeled goat-anti-rat antibody (Invitrogen, A-21094, diluted at 1/500 in PBS) for 45 minutes at room temperature. Following incubation with […] antibodies the sections were washed three times in PBS before being processed further.
For micro-autoradiography, tritiated test compound ([^3H]-Compound 1, [^3H]-Compound 9 or [^3H]-Compound 17 respectively) was incubated on the sections at 120 nM in 50 mM Tris buffer pH 7.4 for 45 minutes at room temperature. Sections were then washed as follows: once in ice-cold 50 mM Tris-HCl pH 7.4 buffer for one minute, twice in ice-cold 70% ethanol for one minute, once in ice-cold 50 mM Tris-HCl pH 7.4 buffer for one minute and finally rinsed briefly in ice-cold distilled water. Sections were subsequently dried for one hour under a stream of air and then exposed to Ilford Nuclear Emulsion Type K5 (Agar Scientific, AGP9281) for ten days at 4° C. in a light-proof slide storage box. The sections were developed by immersing them successively in the following solutions: 1.) Ilford Phenisol Developer (1:5 dilution in H2O, Agar Scientific, AGP9106) for four minutes, 2.) Ilfostop solution (1:20 dilution in H2O, Agar Scientific, AGP9104) for two minutes, 3.) Ilford Hypam Fixer (1:5 dilution in H2O, Agar Scientific, AGP9183) for four minutes and finally rinsed with H2O for 10 minutes.
For image acquisition, sections were mounted using ProLong Gold Antifade reagent (Invitrogen P36930) and imaged on a Panoramic250 Slide Scanner (3DHistech) with a 40× objective capturing brightfield and fluorescent images separately or on a Panoramic Scan II (3DHistech) with a 20× objective. The Visiopharm image analysis software suite was used to align the fluorescent image with the brightfield image.

human FTD Type A sarkosyl-insoluble brain extracts, sequence (Q13148 263-414 limits assumed): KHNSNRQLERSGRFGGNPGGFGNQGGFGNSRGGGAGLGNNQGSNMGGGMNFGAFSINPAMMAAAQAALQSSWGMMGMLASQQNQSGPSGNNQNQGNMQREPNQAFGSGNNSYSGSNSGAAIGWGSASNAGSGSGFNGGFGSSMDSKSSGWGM

Kd [1]: 26 nM | Micro-autoradiography silver grain signal versus pTDP-43 immunostaining (TDP-43 aggregates): colocalization with pTDP-43 aggregates
Compound: [3H]c1cncc(N2CCc3nc(-c4cc([3H])c(N5CCCC5)nc4F)sc3C2=O)c1 [[^3H]-Compound 9, Tritiated 2-(2-fluoro-6-(pyrrolidin-1-yl)pyridin-3-yl)-5-(pyridin-3-yl)-6,7-dihydrothiazolo[5,4-c]pyridin-4(5H)-one]

Reference: US20260103474A1, “NOVEL COMPOUNDS FOR THE DIAGNOSIS OF TDP-43 PROTEINOPATHIES” (AC IMMUNE SA, priority 2022, published 2026)
